≈ marks a conversion by molar mass, not a printed value.
What was measured:
[1] = tested on: APAE006 (strain of P. aeruginosa in which all efflux pumps are inactivated); test: microbe, parasite or virus in culture; format: cell-based; details: for MIC: Pseudomonas aeruginosa, read-out: MIC APAE006, P. aeruginosa, all efflux pumps inactivated
Procedure, shortened: (§1)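 CLSI-guided microdilution: bacteria passaged overnight at 35° C. on Mueller-Hinton agar, tested in cation-adjusted broth at a final 3×10^5–7×10^5 CFU/mL across 2-fold drug dilutions, read after 18-24 h at 35° C.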

[2] = tested on: AABA1060 (clinical isolate of Acinetobacter baumannii); test: MIC broth microdilution, AABA1060; format: cell-based; details: for MIC: Acinetobacter baumannii, read-out: MIC AABA1060
Procedure, shortened: as §1

[3] = tested on: APAE006 in the presence of 8 micrograms per milliliter of polymyxin B nonapeptide; format: cell-based, P. aeruginosa; details: in the presence of 8 micrograms per milliliter of polymyxin B nonapeptide
Procedure, shortened: as §1

APAE001 (ATCC27853) = test: MIC broth microdilution, APAE001; format: cell-based, P. aeruginosa; details: for MIC: Pseudomonas aeruginosa, ATCC27853, read-out: MIC APAE001, APAE001 is ATCC27853
Procedure, shortened: as §1

[4] = tested on: AECO063 (ATCC25922 bearing an acrAB mutation); test: microbe, parasite or virus in culture; format: cell-based, E. coli; details: for MIC: Escherichia coli, ATCC25922, read-out: MIC AECO063
Procedure, shortened: as §1

[5] = tested on: ASAU001 (laboratory strain of S. aureus, ATCC29213); test: MIC broth microdilution, ASAU001; format: cell-based; details: for MIC: Staphylococcus aureus, ATCC29213, read-out: MIC ASAU001
Procedure, shortened: as §1

AECO001 HSA AGP = test: MIC broth microdilution, AECO001 HSA AGP; format: cell-based, E. coli; details: for MIC: Escherichia coli
Protocol: Bacterial isolates were cultivated from −70° C. frozen stocks by overnight passages at 35° C. in ambient air on Mueller-Hinton agar (Beckton Dickinson, Franklin Lakes, N.J.). Clinical isolates tested were obtained from various geographically diverse hospitals in the US and abroad (Focus Diagnostics, Herndon, Va. and JMI, North Liberty, Iowa). Quality control strains were from the American Type Culture Collection (ATCC; Rockville, Md.). Additional primary panel strains were generated using standard molecular biology techniques.
Minimum Inhibitory Concentrations (MICs) were determined by the broth microdilution method in accordance with the Clinical and Laboratory Standards Institute (CLSI) guidelines. In brief, organism suspensions were adjusted to a 0.5 McFarland standard to yield a final inoculum between 3×10^5 and 7×10^5 colony-forming units (CFU)/mL. Drug dilutions and inocula were made in sterile, cation adjusted Mueller-Hinton Broth (Beckton Dickinson). An inoculum volume of 100 μL was added to wells containing 100 μL of broth with 2-fold serial dilutions of drug. All inoculated microdilution trays were incubated in ambient air at 35° C. for 18-24 hours. […] Performance of the assay was monitored by the use of laboratory quality-control strains and levofloxacin, a compound with a defined MIC spectrum, in accordance with CLSI guidelines.
*AECO001 is ATCC25922, AECO063 is ATCC25922 bearing an acrAB mutation, APAE001 is ATCC27853, APAE006 is a strain of P. aeruginosa in which all efflux pumps are inactivated, APAE006+PMBN indicates MICs with the indicated strain in the presence of 8 micrograms per milliliter of polymyxin B nonapeptide, AABA1060 is a clinical isolate of Acinetobacter baumannii, ASAU001 is a laboratory strain of S. aureus (ATCC29213).

AECO001 (ATCC25922) = test: MIC broth microdilution, AECO001; format: cell-based, E. coli; details: for MIC: Escherichia coli, ATCC25922, read-out: MIC AECO001
Procedure, shortened: as §1

SMILES	MIC [1] [µg/mL]	MIC [2] [µg/mL]	MIC APAE006 + PMBN [3]	MIC (APAE001 (ATCC27853)) [µg/mL]	MIC [4] [µg/mL]	MIC [5] [µg/mL]	MIC (AECO001 HSA AGP) [µg/mL]	MIC (AECO001 (ATCC25922)) [µg/mL]	MIC APAE006 ([1]; P. aeruginosa, all efflux pumps inactivated)	MIC AABA1060 ([2]; clinical isolate of Acinetobacter baumannii)	MIC APAE001 (APAE001 (ATCC27853); APAE001 is ATCC27853)	MIC AECO063 ([4]; ATCC25922 bearing an acrAB mutation)	MIC ASAU001 ([5]; S. aureus ATCC29213)	MIC AECO001 HSA AGP (AECO001 HSA AGP)	MIC AECO001 (AECO001 (ATCC25922); AECO001 is ATCC25922)
C[C@H](O)[C@H](NC(=O)c1ccc(C#C/C=C/c2ccc(CO)cc2)cc1)C(=O)NO [Example 101-4]	< 2	16 to 64 (≈ 40.6 to 162 µM)	A (MIC's of 2.0 μg/mL or less = A)	2 to 16 (≈ 5.07 to 40.6 µM)	< 2	16 to 64 (≈ 40.6 to 162 µM)	2 to 16 (≈ 5.07 to 40.6 µM)	< 2							
C[C@@H](N)[C@H](NC(=O)c1ccc(C#Cc2ccc(CN3CCC3)cc2)cc1)C(=O)NO [Example 118-1, N-((1S,2R)-2-Amino-1-hydroxycarbamoyl-propyl)-4-(4-azetidin-1-ylmethyl-phenylethynyl)-benzamide]	< 2	16 to 64 (≈ 39.4 to 157 µM)	A (MIC's of 2.0 μg/mL or less = A)	2 to 16 (≈ 4.92 to 39.4 µM)	2 to 16 (≈ 4.92 to 39.4 µM)	16 to 64 (≈ 39.4 to 157 µM)	16 to 64 (≈ 39.4 to 157 µM)	16 to 64 (≈ 39.4 to 157 µM)							
C[C@@H](N)[C@H](NC(=O)c1ccc(C#Cc2ccc(CN3CCC(F)(F)C3)cc2)cc1)C(=O)NO [Example 118-3]	< 2	2 to 16 (≈ 4.38 to 35 µM)	A (MIC's of 2.0 μg/mL or less = A)	2 to 16 (≈ 4.38 to 35 µM)	< 2	16 to 64 (≈ 35 to 140 µM)	2 to 16 (≈ 4.38 to 35 µM)	< 2							
C[C@@H](N)[C@H](NC(=O)c1ccc(C#CC#Cc2ccc(Cl)cc2)cc1)C(=O)NO [Example 82-8]	< 2	> 64	A (MIC's of 2.0 μg/mL or less = A)	16 to 64 (≈ 40.4 to 162 µM)	< 2	> 64	2 to 16 (≈ 5.05 to 40.4 µM)	< 2							
C[C@@H](O)[C@H](NC(=O)c1ccc(/C=C/C#Cc2ccc(CO)cc2)cc1)C(=O)NO [Example 112-3]	< 2	16 to 64 (≈ 40.6 to 162 µM)	A (MIC's of 2.0 μg/mL or less = A)	2 to 16 (≈ 5.07 to 40.6 µM)	< 2	16 to 64 (≈ 40.6 to 162 µM)	16 to 64 (≈ 40.6 to 162 µM)	< 2							
C[C@@H](N)[C@H](NC(=O)c1ccc(C#CC#Cc2cccc(Cl)c2)cc1)C(=O)NO [Example 82-9]	< 2	2 to 16 (≈ 5.05 to 40.4 µM)	A (MIC's of 2.0 μg/mL or less = A)	2 to 16 (≈ 5.05 to 40.4 µM)	< 2	2 to 16 (≈ 5.05 to 40.4 µM)	2 to 16 (≈ 5.05 to 40.4 µM)	< 2							
CC(C)(O)[C@H](NC(=O)c1ccc(C#CC#Cc2ccc(CNC3CC3)cc2)cc1)C(=O)NO [Example 87-3]	< 2	< 2	A (MIC's of 2.0 μg/mL or less = A)	< 2	< 2	16 to 64 (≈ 35.9 to 144 µM)	< 2	< 2							
O=C(CNC1CC1)NC[C@H](NC(=O)c1ccc(/C=C/C#Cc2ccc(CO)cc2)cc1)C(=O)NO [Example 113-11]	< 2	16 to 64 (≈ 33.6 to 134 µM)	A (MIC's of 2.0 μg/mL or less = A)	2 to 16 (≈ 4.2 to 33.6 µM)	< 2	> 64	16 to 64 (≈ 33.6 to 134 µM)	< 2							
CO[C@H](C)[C@H](NC(=O)c1ccc(/C=C/C#Cc2ccc(CNC3CC3)cc2)cc1)C(=O)NO [Example 113-7]	< 2	2 to 16 (≈ 4.47 to 35.8 µM)	A (MIC's of 2.0 μg/mL or less = A)	2 to 16 (≈ 4.47 to 35.8 µM)	< 2	> 64	2 to 16 (≈ 4.47 to 35.8 µM)	< 2							
O=CN(O)CC(CO)NC(=O)c1ccc(C#Cc2ccc(CN3CCOCC3)cc2)cc1 (centres unmarked) [Example 128-1, N-[2-(Formyl-hydroxy-amino)-1-hydroxymethyl-ethyl]-4-(4-morpholin-4-yl-methyl-phenylethynyl)-benzamide]			C (MIC's of greater than 16.0 μg/mL to 64.0 μg/mL = C)						C (MIC's of greater than 16.0 μg/mL to 64.0 μg/mL = C)	C (MIC's of greater than 16.0 μg/mL to 64.0 μg/mL = C)	C (MIC's of greater than 16.0 μg/mL to 64.0 μg/mL = C)	C (MIC's of greater than 16.0 μg/mL to 64.0 μg/mL = C)	C (MIC's of greater than 16.0 μg/mL to 64.0 μg/mL = C)	C (MIC's of greater than 16.0 μg/mL to 64.0 μg/mL = C)	C (MIC's of greater than 16.0 μg/mL to 64.0 μg/mL = C)
